Assays:
[1] = biological target: Substance-P receptor (Rattus norvegicus, UniProt P14600); test: […]; format: functional, microsomes, Liver, Microsome
[2] = Compound was tested in vivo for the ability to antagonise extravasation induced by the administration.; format: functional; conditions: read-out: ID50 (the source's name)
[3] = Compound was tested in vivo for the ability to antagonise extravasation induced by the administration; format: functional
[4] = (§1) Compound was tested in vivo for the ability to antagonise extravasation induced by the administration at 1 mg/kg po.; format: functional
[5] = as §1; format: functional; remark: listed apart in the source

Sequence of Substance-P receptor (P14600 whole entry): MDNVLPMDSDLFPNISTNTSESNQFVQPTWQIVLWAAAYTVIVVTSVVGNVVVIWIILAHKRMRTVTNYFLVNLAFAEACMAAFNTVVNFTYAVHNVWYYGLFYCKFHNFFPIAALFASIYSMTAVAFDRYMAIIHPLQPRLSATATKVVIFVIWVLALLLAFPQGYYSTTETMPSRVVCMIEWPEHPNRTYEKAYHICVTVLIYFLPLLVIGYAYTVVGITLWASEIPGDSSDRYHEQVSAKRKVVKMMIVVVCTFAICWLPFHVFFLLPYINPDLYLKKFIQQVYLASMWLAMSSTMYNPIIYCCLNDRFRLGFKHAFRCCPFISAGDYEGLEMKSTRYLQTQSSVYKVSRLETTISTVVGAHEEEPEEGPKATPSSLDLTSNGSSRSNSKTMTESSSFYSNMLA

Structure (SMILES)	IC50 [1]	also measured
C[C@H](O[C@H]1CCCN[C@H]1c1ccccc1)c1cc(C(F)(F)F)cc(C(F)(F)F)c1	87 nM	–
C[C@@H](O[C@H]1CCCN(Cc2n[nH]c(=O)[nH]2)[C@H]1c1ccccc1)c1ccccc1	5.9 nM	–
c1ccc(CO[C@H]2CCCN[C@H]2c2ccccc2)cc1	160 nM	–
C[C@H](O[C@H]1CCCN(Cc2n[nH]c(O)n2)[C@H]1c1ccccc1)c1cc(Cl)cc(Cl)c1	25 nM	–
C[C@H](O[C@H]1CCCN[C@H]1c1ccccc1)c1ccccc1	> 10000 nM	–
C[C@@H](O[C@H]1CCCN[C@H]1c1ccccc1)c1ccccc1	86 nM	–
C[C@@H](O[C@H]1CCCN(Cc2nc[nH]n2)[C@H]1c1ccccc1)c1cc(C(F)(F)F)cc(C(F)(F)F)c1	0.16 nM	ED50 [2]: 0.06 mg/kg; Inhibition [3]: 12%; inhibition in vivo at 1 mg/kg [4]: 78%
C[C@@H](O[C@H]1CCCN[C@H]1c1ccccc1)c1cc(C(F)(F)F)cc(C(F)(F)F)c1	0.15 nM	–
C[C@@H](O[C@H]1CCCN[C@H]1c1ccccc1)c1cc(Cl)cc(Cl)c1	0.91 nM	–
C[C@@H](O[C@H]1CCCN(Cc2n[nH]c(O)n2)[C@H]1c1ccccc1)c1cc(C(F)(F)F)cc(C(F)(F)F)c1	0.16 nM	ED50 [2]: 0.026 mg/kg; inhibition in vivo at 1 mg/kg [5]: 66%; inhibition in vivo at 1 mg/kg [4]: 97%
C[C@H](O[C@H]1CCCN[C@H]1c1ccccc1)c1cc(Cl)cc(Cl)c1	85 nM	–
FC(F)(F)c1cc(CO[C@H]2CCCN(Cc3nc[nH]n3)[C@H]2c2ccccc2)cc(C(F)(F)F)c1	0.18 nM	ED50 [2]: 0.034 mg/kg; Inhibition [3]: 0%; inhibition in vivo at 1 mg/kg [4]: 55%
FC(F)(F)c1cc(CO[C@H]2CCCN[C@H]2c2ccccc2)cc(C(F)(F)F)c1	0.8 nM	–
C[C@@H](O[C@H]1CCCN(Cc2n[nH]c(O)n2)[C@H]1c1ccccc1)c1cc(Cl)cc(Cl)c1	0.09 nM	ED50 [2]: > 0.1 mg/kg

From ChEMBL document CHEMBL1129801, “3-Benzyloxy-2-phenylpiperidine NK1 antagonists: the influence of alpha methyl substitution” (Bioorg Med Chem Lett, 1997)
